The target of one data set is T1, CYP2C19 (Homo sapiens, UniProt P33261).
T1 construct: tissue Corning Co., Ltd; host or cells: human liver microsomes
In words: Cytochrome P450 isoenzyme inhibition, CYP2C19. The data set is classed as in vitro ADME. The following applies: human liver microsomes; read-out: CYP enzyme inhibition (IC50) 2C19. The text has this: (§1) Experimental objective: To determine the inhibitory effect of the test compound on the activity of human liver microsomal cytochrome P450 isoenzymes (CYP1A2, CYP2C9, CYP2C19, CYP2D6 and CYP3A4; Corning Co., Ltd.). […]
On the technique in general: Liver microsomes are vesicles of endoplasmic reticulum, rich in cytochrome P450 enzymes.

The target in another data set is T2, CYP2C9 (Homo sapiens, UniProt P11712).
T2 construct: tissue Corning Co., Ltd; host or cells: human liver microsomes
T2 sequence (P11712 whole entry): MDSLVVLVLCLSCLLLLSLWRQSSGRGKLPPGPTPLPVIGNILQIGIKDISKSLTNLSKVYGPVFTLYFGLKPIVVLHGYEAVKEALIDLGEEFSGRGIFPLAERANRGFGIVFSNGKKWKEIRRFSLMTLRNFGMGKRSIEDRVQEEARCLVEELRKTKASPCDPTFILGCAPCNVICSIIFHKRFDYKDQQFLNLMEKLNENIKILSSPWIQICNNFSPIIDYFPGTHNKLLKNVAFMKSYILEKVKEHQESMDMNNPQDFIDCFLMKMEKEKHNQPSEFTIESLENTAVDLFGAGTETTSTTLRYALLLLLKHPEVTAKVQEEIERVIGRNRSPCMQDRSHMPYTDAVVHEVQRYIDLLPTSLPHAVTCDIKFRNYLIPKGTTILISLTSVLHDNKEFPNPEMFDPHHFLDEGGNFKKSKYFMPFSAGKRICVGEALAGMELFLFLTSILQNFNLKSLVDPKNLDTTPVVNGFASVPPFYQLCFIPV
The data set is described as follows: Cytochrome P450 isoenzyme inhibition, CYP2C9. The class given is in vitro ADME. The conditions noted are these: human liver microsomes; read-out: CYP enzyme inhibition (IC50) 2C9.
Description: as §1

Data set [1] in a line: Metabolic stability in liver microsome (SD rat). The data set is classed as in vitro ADME, SD rats. The procedure: (§2) Objective: To determine the metabolic stability of test compounds in the liver microsomes of humans, CD-1 5 mice and SD rats (Corning Co., Ltd., Miaotong Biological Technology Co., Ltd., Miaotong Biological Technology Co., Ltd.).
(§3) Procedures: Firstly, eight 96-well plates were prepared, and named T0, T5, T10, T20, T30, T60, NCF60 and BLANK; except for BLANK (added with buffer at 10 μL/well), the plates were added with the solution of compounds at 10 μL/well. Prepared microsomes were added to the 7 plates (80 μL/well), except for the T0 10 plate. The NCF60 plate was added with the buffer at 10 μL/well, and incubated in a 37° C. water bath, and timing was started:
(§4) Prepared NADPH cofactor working solution was aliquoted into a 96-well shallow-well plate serving as a loading slot. Each plates was added with the solution to at 10 μL/well by a 96-channel pipette and incubated in a 37° C. water bath to start the reaction:
(§5) At each time point, termination solution (cold acetonitrile containing 100 ng/mL Tolbutamide and 100 ng/mL Labetalol as internal standard) was added at 300 μL/well to stop the reaction, and the mixture was mixed well; the mixture was centrifuged at 4000 rpm for 20 minutes to precipitate the protein; the supernatant was transferred at 100 μL/well to a new 96-well plate containing 300 μL/well of HPLC water with a 96-channel pipette, and the mixture was mixed well. […]

A short description of data set [2]: Metabolic stability in liver microsome (human). The data set is classed as in vitro ADME, humans. The method, then: as §2, §3, §4, §5
The next data set has as its target T3, CYP3A4 (Homo sapiens, UniProt P08684).
T3 construct: tissue Corning Co., Ltd; host or cells: human liver microsomes
In words: Cytochrome P450 isoenzyme inhibition, CYP3A4. The data set is classed as in vitro ADME. The following applies: human liver microsomes; read-out: CYP enzyme inhibition (IC50) 3A4.
Description: as §1

The next data set concerns the target T4, CYP2D6 (Homo sapiens, UniProt P10635).
T4 construct: tissue Corning Co., Ltd; host or cells: human liver microsomes
In words: Cytochrome P450 isoenzyme inhibition, CYP2D6. The data set is classed as in vitro ADME. The following applies: human liver microsomes; read-out: CYP enzyme inhibition (IC50) 2D6.
Description: as §1

Another data set deals with T5, CYP1A2 (Homo sapiens, UniProt P05177).
T5 construct: tissue Corning Co., Ltd; host or cells: human liver microsomes
T5 sequence (P05177 1-516): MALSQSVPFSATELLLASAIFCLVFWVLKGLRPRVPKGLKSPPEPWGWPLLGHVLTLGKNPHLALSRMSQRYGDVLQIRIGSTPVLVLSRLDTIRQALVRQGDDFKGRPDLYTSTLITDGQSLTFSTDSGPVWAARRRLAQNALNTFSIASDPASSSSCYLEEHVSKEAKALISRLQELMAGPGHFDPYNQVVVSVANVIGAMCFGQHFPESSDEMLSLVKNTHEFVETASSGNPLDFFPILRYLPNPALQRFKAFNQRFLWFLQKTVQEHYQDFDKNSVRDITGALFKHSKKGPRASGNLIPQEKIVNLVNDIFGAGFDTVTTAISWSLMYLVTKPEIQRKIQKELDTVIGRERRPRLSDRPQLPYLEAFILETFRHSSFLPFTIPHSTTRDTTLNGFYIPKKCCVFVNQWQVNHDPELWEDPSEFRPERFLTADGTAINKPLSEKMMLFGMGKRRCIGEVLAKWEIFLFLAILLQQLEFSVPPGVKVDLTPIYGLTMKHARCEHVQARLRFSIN
The data set is described as follows: Cytochrome P450 isoenzyme inhibition, CYP1A2. The data set is classed as in vitro ADME. The following applies: human liver microsomes; read-out: CYP enzyme inhibition (IC50) 1A2.
Description: as §1

Counter-ions that a name gives are not always drawn.

T1 sequence (P33261 whole entry): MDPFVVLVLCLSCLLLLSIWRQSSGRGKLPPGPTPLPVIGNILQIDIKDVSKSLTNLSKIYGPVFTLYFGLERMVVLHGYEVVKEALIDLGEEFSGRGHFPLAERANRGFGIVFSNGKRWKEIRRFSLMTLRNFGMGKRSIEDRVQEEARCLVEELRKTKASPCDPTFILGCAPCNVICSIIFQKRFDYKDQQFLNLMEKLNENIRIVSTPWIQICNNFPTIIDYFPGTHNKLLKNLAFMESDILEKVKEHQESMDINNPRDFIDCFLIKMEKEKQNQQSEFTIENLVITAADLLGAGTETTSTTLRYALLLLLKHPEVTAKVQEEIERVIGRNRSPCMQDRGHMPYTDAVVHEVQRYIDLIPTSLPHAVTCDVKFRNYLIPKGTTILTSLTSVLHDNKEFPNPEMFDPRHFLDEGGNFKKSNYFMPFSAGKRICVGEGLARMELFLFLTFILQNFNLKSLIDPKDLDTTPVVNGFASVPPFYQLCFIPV
T4 sequence (P10635 whole entry): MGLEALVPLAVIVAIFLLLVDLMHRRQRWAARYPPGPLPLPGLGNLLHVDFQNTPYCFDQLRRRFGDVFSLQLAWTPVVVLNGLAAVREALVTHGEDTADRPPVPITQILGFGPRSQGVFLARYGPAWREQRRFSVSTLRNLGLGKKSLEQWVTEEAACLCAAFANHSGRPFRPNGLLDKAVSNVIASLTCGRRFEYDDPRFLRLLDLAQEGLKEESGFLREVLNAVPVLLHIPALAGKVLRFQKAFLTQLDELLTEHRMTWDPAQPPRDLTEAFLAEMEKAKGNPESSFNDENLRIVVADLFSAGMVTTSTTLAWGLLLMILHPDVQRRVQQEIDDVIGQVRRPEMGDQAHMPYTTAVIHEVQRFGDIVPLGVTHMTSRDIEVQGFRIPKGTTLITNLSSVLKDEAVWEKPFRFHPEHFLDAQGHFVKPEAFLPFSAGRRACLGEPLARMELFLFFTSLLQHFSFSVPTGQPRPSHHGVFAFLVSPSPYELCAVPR
T3 sequence (P08684 whole entry): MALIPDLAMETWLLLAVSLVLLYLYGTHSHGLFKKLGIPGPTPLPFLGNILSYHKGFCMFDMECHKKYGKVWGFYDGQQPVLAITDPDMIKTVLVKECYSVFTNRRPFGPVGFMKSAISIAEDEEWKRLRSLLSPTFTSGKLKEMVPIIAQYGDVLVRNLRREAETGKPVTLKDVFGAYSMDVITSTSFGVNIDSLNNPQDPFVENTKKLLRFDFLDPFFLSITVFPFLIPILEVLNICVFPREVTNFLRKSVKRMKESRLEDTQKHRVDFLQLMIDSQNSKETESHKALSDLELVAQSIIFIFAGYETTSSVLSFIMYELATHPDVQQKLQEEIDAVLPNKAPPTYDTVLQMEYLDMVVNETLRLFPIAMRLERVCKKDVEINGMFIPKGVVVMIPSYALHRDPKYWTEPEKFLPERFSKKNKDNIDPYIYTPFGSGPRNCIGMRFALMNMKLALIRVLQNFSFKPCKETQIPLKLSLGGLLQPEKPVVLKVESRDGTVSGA

As for `CC/C(=C(/c1ccc(OCCNC/C=C/C(=O)N(C)C)nc1)c1[nH]c2ccccc2c1Cl)c1ccccc1` [Compound 3 monohydrochloride], the IC50 (in general, the midpoint of a concentration-inhibition curve) at CYP2C19 worked out at 3.9 µM; at CYP2C9, 8.4 µM; at CYP3A4, 9.8 µM; at CYP2D6, 25.6 µM; on CYP1A2, 45.1 µM. Also, the “Stability in liver microsomes” value in data set [1] is reported as 35; in data set [2], 43.

Values taken from US12221432B2, “Estrogen receptor antagonist” (CHIA TAI TIANQING PHARMACEUTICAL GROUP CO., LTD., priority 2018, dated 2025).
